From the NIST ThermoML archive (doi:10.1016/j.jct.2006.07.014)
± gives the expanded uncertainty stated by the source.

What was measured:
[1] = Liquid; for mass density: 298.15 K, 101.33 kPa, Vibrating tube method
[2] = refractive index (Na D-line) (dimensionless); details: 298.15 K; 101.33 kPa; Liquid; Standard Abbe refractometry

mass density [1]	vapor or sublimation pressure ([1]; 371.05 K)	refractive index [2]	vapor or sublimation pressure ([1]; 353.85 K)	vapor or sublimation pressure ([1]; 352.25 K)	vapor or sublimation pressure ([1]; 379.45 K)	vapor or sublimation pressure ([1]; 389.15 K)	SMILES
802.4 ± 4.6 kg/m3	94.83 ± 5 kPa	1.3953 ± 0.0012	–	–	–	–	CCC(C)O (stereo not given) [butan-2-ol]
781.2 ± 4.4 kg/m3	–	1.3852 ± 0.0012	94.83 ± 5 kPa	–	–	–	CC(C)(C)O [2-methylpropan-2-ol]
776.5 ± 4.3 kg/m3	–	1.3416 ± 0.0012	–	94.83 ± 5 kPa	–	–	CC#N [acetonitrile]
797.8 ± 4.6 kg/m3	–	1.3939 ± 0.0012	–	–	94.83 ± 5 kPa	–	CC(C)CO [2-methyl-1-propanol]
805.8 ± 4.6 kg/m3	–	1.3974 ± 0.0012	–	–	–	94.83 ± 5 kPa	CCCCO [butan-1-ol]
